# Results taken from ChEMBL document CHEMBL4725334, “Discovery of novel integrase-LEDGF/p75 allosteric inhibitors based on a benzene scaffold” (Bioorg Med Chem, 2020).
# Assays:
# [1] = Binding affinity to LEDGF/p75 binding pocket of integrase in HIV-1 NL432 infected in human MT4 cells assessed as allosteric inhibition of IN-LEDGF/p75 interaction by measuring inhibition of virus-induced cytopathicity measured after 4 days by MTT assay; type: cell-based; settings: Human immunodeficiency virus 1, NL432, MT4, 96 h
# [2] = Cytotoxicity against human MT4 cells assessed as reduction in cell viability measured after 4 days by MTT assay; type: cell-based; settings: time 4 day
# [3] = Metabolic stability in human liver microsomes assessed as parent compound remaining at 0.5 uM incubated for 30 mins by LC-MS/MS analysis; type: ADME, Microsome; settings: read-out: Stabilty
# [4] = Oral bioavailability in Sprague-Dawley rat 1 mg/kg administered as cassette dosing measured for 24 hrs by LC-MS/MS analysis; type: ADME, organism-based; settings: in vivo
# [5] = Half-life in Sprague-Dawley rat at 0.5 mg/kg, iv and 1 mg/kg, po administered as cassette dosing measured for 24 hrs by LC-MS/MS analysis; type: ADME, organism-based; settings: in vivo
# [6] = Total clearance in Sprague-Dawley rat at 0.5 mg/kg, iv and 1 mg/kg, po administered as cassette dosing measured for 24 hrs by LC-MS/MS analysis; type: ADME, organism-based; settings: in vivo
# [7] = Metabolic stability in rat liver microsomes assessed as parent compound remaining at 0.5 uM incubated for 30 mins by LC-MS/MS analysi; type: ADME, Microsome; settings: read-out: Stabilty
# [8] = AUC in Sprague-Dawley rat at 0.5 mg/kg, iv measured for 24 hrs by LC-MS/MS analysis; type: ADME, organism-based; set-up: dose 0.5 mg/kg, time 24 hrs; settings: in vivo
compound,measurement,setting,value
Cc1ccc(-c2c(C)c(-c3ccc(C)c(C)c3)c(C(OC(C)(C)C)C(=O)O)c(C)c2NC(=O)c2ccccc2)cc1C (centres undefined),EC50,[1],51 nM
same,CC50 at 96 h,[2],9100 nM
CC(=O)Nc1c(C)c(C(OC(C)(C)C)C(=O)O)c(-c2ccc(C)c(C)c2)c(C)c1-c1ccc(C)c(C)c1 (centres undefined),EC50,[1],19 nM
same,CC50 at 96 h,[2],19000 nM
CNC(=O)Nc1c(C)c(C(OC(C)(C)C)C(=O)O)c(-c2ccc(C)c(C)c2)c(C)c1-c1ccc(C)c(C)c1 (centres undefined),EC50,[1],77 nM
same,CC50 at 96 h,[2],20000 nM
Cc1ccc(-c2c(C)c(-c3ccc(C)c(C)c3)c(C(OC(C)(C)C)C(=O)O)c(C)c2NC(=O)Nc2ccccc2)cc1C (centres undefined),EC50,[1],29 nM
same,CC50 at 96 h,[2],8000 nM
Cc1ccc(-c2c(C)c(-c3ccc(C)c(C)c3)c(C(OC(C)(C)C)C(=O)O)c(C)c2NS(=O)(=O)c2ccccc2)cc1C (centres undefined),EC50,[1],33 nM
same,CC50 at 96 h,[2],11000 nM
Cc1ccc(-c2c(C)c(-c3ccc4c(c3)CCO4)c(C(OC(C)(C)C)C(=O)O)c(C)c2NS(C)(=O)=O)cc1C (centres undefined),EC50,[1],35 nM
same,CC50 at 96 h,[2],38000 nM
Cc1ccc(-c2c(C)c(-c3ccc(C)c(C)c3)c(C(OC(C)(C)C)C(=O)O)c(C)c2N)cc1C (centres undefined),EC50,[1],27 nM
same,CC50 at 96 h,[2],12000 nM
Cc1ccc(-c2c(C)c(-c3ccccc3)c(C(OC(C)(C)C)C(=O)O)c(C)c2NS(C)(=O)=O)cc1C (centres undefined),EC50,[1],34 nM
same,CC50 at 96 h,[2],> 50000 nM
CNc1c(C)c(C(OC(C)(C)C)C(=O)O)c(-c2ccc(C)c(C)c2)c(C)c1-c1ccc(C)c(C)c1 (centres undefined),EC50,[1],31 nM
same,CC50 at 96 h,[2],8800 nM
Cc1ccc(-c2c(C)c(-c3ccc4c(c3)NCCO4)c(C(OC(C)(C)C)C(=O)O)c(C)c2NS(C)(=O)=O)cc1C (centres undefined),EC50,[1],330 nM
same,CC50 at 96 h,[2],42000 nM
Cc1ccc(-c2c(C)c(-c3ccc4c(c3C)CCCO4)c(C(OC(C)(C)C)C(=O)O)c(C)c2NS(C)(=O)=O)cc1C (centres undefined),EC50,[1],3.9 nM
same,"remaining at 0.5 h, 0.5 µM",[3],59%
same,bioavailability,[4],36%
same,half-life,[5],3.1 h
same,CC50 at 96 h,[2],24000 nM
same,clearance,[6],6.99 mL/min/kg
same,"remaining at 0.5 h, 0.5 µM",[7],61%
same,AUC at 24 h,[8],1190 ng·h/mL
Cc1ccc(-c2c(C)c(-c3ccc(Cl)cc3)c(C(OC(C)(C)C)C(=O)O)c(C)c2NS(C)(=O)=O)cc1C (centres undefined),EC50,[1],11 nM
same,CC50 at 96 h,[2],26000 nM
Cc1ccc(-c2c(C)c(-c3ccc4c(c3)CCCO4)c(C(OC(C)(C)C)C(=O)O)c(C)c2NS(C)(=O)=O)cc1C (centres undefined),EC50,[1],22 nM
same,CC50 at 96 h,[2],28000 nM
CCNC(=O)Nc1c(C)c(C(OC(C)(C)C)C(=O)O)c(-c2ccc(C)c(C)c2)c(C)c1-c1ccc(C)c(C)c1 (centres undefined),EC50,[1],37 nM
same,CC50 at 96 h,[2],15000 nM
Cc1ccc(-c2c(C)c(-c3ccc(Cl)c(F)c3)c(C(OC(C)(C)C)C(=O)O)c(C)c2NS(C)(=O)=O)cc1C (centres undefined),EC50,[1],26 nM
same,CC50 at 96 h,[2],22000 nM
Cc1ccc(-c2c(C)c(-c3ccc(C)c(C)c3)c(C(OC(C)(C)C)C(=O)O)c(C)c2NS(=O)(=O)C2CC2)cc1C (centres undefined),EC50,[1],29 nM
same,CC50 at 96 h,[2],11000 nM
Cc1ccc(-c2c(C)c(-c3ccc(C)c(C)c3)c(C(OC(C)(C)C)C(=O)O)c(C)c2NS(C)(=O)=O)cc1C (centres undefined),EC50,[1],11 nM
same,CC50 at 96 h,[2],15000 nM
CCC(=O)Nc1c(C)c(C(OC(C)(C)C)C(=O)O)c(-c2ccc(C)c(C)c2)c(C)c1-c1ccc(C)c(C)c1 (centres undefined),EC50,[1],19 nM
same,CC50 at 96 h,[2],15000 nM
Cc1ccc(-c2c(C)c(-c3ccc(C)c(C)c3)c(C(OC(C)(C)C)C(=O)O)c(C)c2NCc2ccccc2)cc1C (centres undefined),EC50,[1],480 nM
same,CC50 at 96 h,[2],4000 nM
Cc1ccc(-c2c(C)c(-c3ccc4c(c3)N(C)CCO4)c(C(OC(C)(C)C)C(=O)O)c(C)c2NS(C)(=O)=O)cc1C (centres undefined),EC50,[1],31 nM
same,CC50 at 96 h,[2],31000 nM
Cc1nc2ccccc2c(-c2ccc3c4c(ccnc24)CCO3)c1[C@H](OC(C)(C)C)C(=O)O [BI-224436],EC50,[1],56 nM
same,"remaining at 0.5 h, 0.5 µM",[3],98%
same,bioavailability,[4],64%
same,half-life,[5],4.2 h
same,CC50 at 96 h,[2],> 50000 nM
same,clearance,[6],1.09 mL/min/kg
same,"remaining at 0.5 h, 0.5 µM",[7],100%
same,AUC at 24 h,[8],7680 ng·h/mL
